These results are taken from patent publication US5334728A (The Trustees of The University of Pennsylvania, priority 1992, dated 1994).

Series [1] relates to CNS D-2 dopamine receptor. The settings on record: cited from earlier work.
For series [2], the target named is T1, dopamine D-2 receptor (Rattus norvegicus, UniProt P61169).
T1 construct: Striatal tissues were excised, pooled and homogenized in 100 volumes (w/v) of ice-cold Tris-HCl buffer; from tissue; host or cells: rat striatum (male Sprague-Dawley), twice-centrifuged membrane homogenate
The series is described as follows: Competition binding using [^125 I]IBF, rat striatal membranes. The conditions noted are these: [^125 I]IBF 0.15-0.30 nM, mean ± SEM of three to five determinations. The method, then: *0.15-0.30 nM [^125 I]IBF was incubated in the presence of the
(§1) indicated compounds in 7-11 concentrations and of membrane preparation
(§2) from rat striatum. Each value represents the mean ± SEM of three to
(§3) Male Sprague-Dawley rats (200-250 g) were decapitated, and the brains were removed and placed in ice. Striatal tissues were excised, pooled and homogenized in 100 volumes (w/v) of ice-cold Tris-HCl buffer (50 mM), pH 7.4. The homogenates were centrifuged at 20,000× g for 20 min. The resultant pellets were rehomogenized in the same buffer and centrifuged again. The final pellets were resuspended in assay buffer containing: 50 mM Tris buffer pH 7.4, 120 mM NaCl, 5 mM KCl, 2 mM CaCl2 and 1 mM MgCl2 and kept at -20° C. for the following binding assay.
(§4) The binding assays were performed by incubating 50 μl of tissue preparations containing 40-60 μg of protein with appropriate amounts of l-125 labeled ligand and competitors in a total volume of 0.2 ml of the assay buffer. After an incubation period of 15 min at 37° C. (with stirring), the samples were rapidly filtered in the cell harvester (Brandel M-24R) under vacuum through Whatman GF/B glass fiber filters pretreated with 0.2% protamine base and washed with 3×5 ml of cold (4° C.) 50 mM Tris-HCl buffer, pH 7.4. […] The filters were counted in a gamma counter (Beckman 5500) at an efficiency of 70%.

Series [3] concerns D-2 dopamine receptor. The settings on record: cited from earlier work; for nonspecific binding: in vitro.
Series [4] deals with D-2 dopamine receptor. The settings on record: cited from earlier work; for Kd: Table 1, in vitro binding; for affinity for D-2 dopamine receptor / nonspecific binding: rat striatum tissue preparations; for affinity and selectivity to the D-2 dopamine receptor: striatal membrane preparation.
For series [5], the target named is T2, D-2 dopamine receptors (Rattus norvegicus, UniProt P61169).
T2 construct: Striatal tissues were excised, pooled and homogenized in 100 volumes (w/v) of ice-cold Tris-HCl buffer; from tissue; host or cells: rat striatum (male Sprague-Dawley), twice-centrifuged membrane homogenate
The series is described as follows: Competition binding using [^125 I]IBZM, rat striatal membranes. As to the method:
*0.15-0.4 nM [^125 I]IBZM was incubated in the presence of the
as §1, §2, §3, §4

Series [6] has as its target T1, dopamine D-2 receptor. In words: Saturation binding of [^125 I]IBF to rat striatal homogenate in vitro. The conditions noted are these: saturation curve, FIG. 1. The method, then: as §3, §4
Series [7] deals with D-2 dopamine receptor. The settings on record: read-out: IC50 against [H^3]spiperone binding of rat striatal tissue preparation; Table 1 footnote; cited from earlier work.
Series [8] has as its system D-2 dopamine receptor. The conditions noted are these: cited from earlier work.
Series [9] is described as follows: Biodistribution in rats after IV injection. The class given is in vivo, rat. The conditions noted are these: IV, average of 3 rats ± SD. The method, then:
Male Sprague Dawley rats (225-300 g), which were allowed free access to food and water, were used for in vivo biodistribution study. While under halothane anesthesia, 0.2 ml of a saline solution containing [^125 l]IBF, 21, (8-10 μCi) was injected directly into the femoral vein, and the rats were sacrificed at various time points postinjection by cardiac excision under halothane anesthesia. The organs of interest were removed, weighed and the radioactivity was counted using a Beckman gamma automatic counter (Model 4000). The percent dose per organ was calculated by a comparison of the tissue counts to suitably diluted aliquots of the injected material. Total activities of blood and muscle were calculated assuming that they are 7% and 40% of total body weight, respectively.

[10] abbreviates: [^125 I]IBZM 0.15-0.4 nM, mean ± SEM of three to five determinations.
Where [11] appears, read: N-methylspiperone imaging agent, determined earlier.

Where two headings read alike, the source gives them in different places.

T2 sequence (P61169 whole entry): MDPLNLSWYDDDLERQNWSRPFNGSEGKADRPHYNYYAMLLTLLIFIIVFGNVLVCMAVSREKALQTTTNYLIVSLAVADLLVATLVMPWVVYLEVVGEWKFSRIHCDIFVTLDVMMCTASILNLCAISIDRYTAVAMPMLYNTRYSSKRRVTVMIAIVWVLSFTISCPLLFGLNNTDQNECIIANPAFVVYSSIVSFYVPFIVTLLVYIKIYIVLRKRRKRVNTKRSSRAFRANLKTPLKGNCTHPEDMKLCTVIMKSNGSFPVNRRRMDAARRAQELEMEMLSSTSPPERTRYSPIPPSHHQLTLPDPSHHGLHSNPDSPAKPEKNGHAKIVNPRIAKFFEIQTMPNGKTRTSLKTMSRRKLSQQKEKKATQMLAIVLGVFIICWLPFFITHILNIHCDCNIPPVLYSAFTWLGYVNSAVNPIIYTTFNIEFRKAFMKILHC
T1 sequence (P61169 whole entry): as above

As to `CCN1CCC[C@H]1CNC(=O)c1c(O)c(Cl)cc(Cl)c1O[11CH3]` (racemic) [[^11 C]raclopride], in series [1] (living human brain, PET, equilibrium model and Scatchard plots), the “affinity constant Kd” value is given as 7.1 nM. Also, in series [1] (living human brain, PET), the Bmax was 15 pmol/mL and the “ratio of specific striatal to nonspecific cerebellar binding” value is “high ratio”.
For orientation: Ki means the dissociation constant of the complex between target and ligand, obtained from inhibition or displacement. Higher therefore signals weaker binding. In [2], `NC1CCc2cc(O)c(O)cc2C1` (single isomer, unassigned; (+)) [(+) ADTN,6,7] registered a Ki of 65.7 ± 13 nM.
As a reminder, the Kd is the constant that tells how readily two partners part at equilibrium. With `O=C(CCCN1CCC2(CC1)C(=O)NCN2c1ccccc1)c1ccc(F)cc1I` [2'-ISP], in [3], the “D-2 specificity” value is on record as “excellent D-2 specificity” and the nonspecific binding is listed as 40%. In addition, the Kd in series [3] (rat striatum) was 0.25 nM.
Take `CCN1CCC[C@H]1CNC(=O)c1c(O)cccc1OC` [BZM]: the Kd in series [4] is 31.1 nM.
`CCN1CCC[C@H]1CNC(=O)c1cc2cc(Br)ccc2cc1O` [Comparative Cpd. A, reference compound]: the Ki in [5] (setting [10]) was 280 ± 47 nM.
Same read-out and setting: next, `CCN1CCC[C@H]1CNC(=O)c1c(OC)ccc2ccccc12` [Comparative Cpd. B, 2-Methoxy-N-[(1-ethyl-2-pyrrolidinyl)methyl]naphthyl-1-carboxamide, reference compound]: 507 ± 29 nM.
As to `CCN1CCC[C@H]1CNC(=O)c1cc2cc(Br)ccc2cc1OC` [Compound 6, S-(-)-7-Bromo-3-methoxy-N[(1-ethyl-2-pyrrolidinyl)methyl]naphthyl-2-carboxamide], the Ki in series [5] (setting [10]) is 82 ± 12 nM; in series [5] ([^125 I]IBZM binding), 82 nM.
With `CCN1CCC[C@H]1CNC(=O)c1cc2cc(I)ccc2cc1OC` [Compound 8, (S)-(-)-7-Iodo-3-methoxy-N-[(1-ethyl-2-pyrrolidinyl)methyl]naphthyl-2-carboxamide], the Ki in series [5] (setting [10]) was 168 ± 13 nM; in series [5] ([^125 I]IBZM binding), 168 nM.
The like results for `CCN1CCC[C@H]1CNC(=O)c1cc2ccccc2cc1OC` [Compound 11, (S)-(-)-3-Methoxy-N-[(1-ethyl-2-pyrrolidinyl)methyl]naphthyl-2-carboxamide] were, in that order, 30 ± 4.2 nM and 30 nM.
For the compound `CCN1CCC[C@H]1CNC(=O)c1cc(I)cc2c1OCC2` [Compound 21, 5-Iodo-7-N-[(1-ethyl-2-pyrrolidinyl)methyl]carboxamido-2,3-dihydrobenzofuran], the Ki in [5] (setting [10]) turned out to be 0.33 ± 0.02 nM; in [5] ([^125 I]IBZM binding) it was 0.23 nM; in series [2] it was 0.085 ± 0.01 nM. Moreover, the “times more effective than the bromine atom for increasing competitive binding affinity” value in series [5] (iodo (21) vs bromo (19)) was “sixteen”. For the same compound, the “nonspecific binding” value in series [6] is “low nonspecific binding”.
Regarding `CCN1CCC[C@H]1CNC(=O)c1cccc2c1OCC2` [Compound 23, 7-N-[(1-ethyl-2-pyrrolidinyl)methyl]carboxamido-2,3-dihydrobenzofuran], the figures for the Ki in series [5] (setting [10]) and in series [5] ([^125 I]IBZM binding) were 135 ± 22 nM and 135 nM, respectively.
In the case of `CCc1cc(Cl)c(OC)c(C(=O)NC[C@@H]2CCCN2CC)c1O` [Eticlopride], in series [4], the equilibrium dissociation constant (Kd) is 0.17 nM, the “affinity for D-2 dopamine receptor” value was “high affinity” and the “nonspecific binding” value is listed as “low nonspecific binding”.
Take `CCN1CCC[C@H]1CNC(=O)c1c(OC)ccc(I)c1O` [IBZM]: the Ki in series [2] worked out at 0.261 ± 0.018 nM. Also, in series [4], the Kd is 0.43 nM; the “affinity and selectivity to the D-2 dopamine receptor” value (from here on “affinity and selectivity”) is “very high affinity and selectivity”.
As for `COc1cc(N=[N+]=[N-])c(I)cc1C(=O)NC1CCN(Cc2ccccc2)CC1` [Iodoazidoclebopride], in series [4], the Kd was 14 nM; the “affinity and selectivity” value is “very high affinity and selectivity”.
`CCN1CCC[C@H]1CNC(=O)c1cc(I)ccc1OC` [Iodopride]: the “affinity and selectivity” value in series [4] was “very high affinity and selectivity”. In addition, the IC50 in series [7] was 3 nM.
In series [2], `O=C(c1ccc(F)cc1)C1CCN(CCn2c(=O)[nH]c3ccccc3c2=O)CC1` [Ketanserin] had a Ki of 491 ± 49 nM.
For the compound `CN1CN(c2ccccc2)C2(CCN(CCCC(=O)c3ccc(F)cc3)CC2)C1=O` [N-methylspiperone], in series [1] (setting [11]), the Bmax was 16.6 pmol/g and the Kd is 0.097 nM.
With `CCN1CCC[C@H]1CNC(=O)c1c(O)c(Cl)cc(Cl)c1OC` [Raclopride], in series [4], the Kd was 1.1 nM, the “affinity for D-2 dopamine receptor” value is listed as “high affinity” and the “nonspecific binding” value is recorded as “low nonspecific binding”.
In the case of `CCN1CCC[C@H]1CNC(=O)c1c(OC)ccc([123I])c1O` [S-[^123 I]IBZM], the “basal ganglia uptake, planar imaging” value in [8] (immediately after intravenous injection, humans) is “high concentration in basal ganglia of the brain”. Besides, in series [8] (normal human brain, 1 hour postinjection), the “basal ganglia uptake, SPECT” value is on record as “highly specific uptake in the basal ganglia of the brain”.
Regarding `CCN1CCC[C@H]1CNC(=O)c1c(OC)ccc([125I])c1O` [[^125 I]IBZM, reference compound], the Brain uptake in [9] (2 min) turned out to be 2.87 % Dose/Organ. The Thyroid uptake in series [9] (60 min) is reported as 0.1 % Dose/Organ. In series [3], the nonspecific binding is listed as 5%.
